In ChEMBL document CHEMBL4483862, “Open-source discovery of chemical leads for next-generation chemoprotective antimalarials” (2018) one finds IC50 and IC90 data, which are given here for 27 compounds.

In the assay the test system is Plasmodium berghei. The experiment in a line: Luciferase/luciferin-expressing antifolate-resistant parasites were used to infect a culture of HepG2 cells that were pre-incubated with compounds. Infected hepatocytes emit light due to the luciferase reaction. Assay results are presented as the percent inhibition of light emission compared to control. […]. Format: functional. The following applies: sporozoite; for IC90: read-out: LUCIFERASE INFECTION ASSAY - IC90.

Where [1] appears, read: read-out: LUCIFERASE INFECTION ASSAY - IC50.

By IC50 is commonly meant the concentration that gives 50% inhibition. Broadly, the IC90 is the concentration needed for an effect of 90%. Consider `COc1ccc(-c2csc3ncnc(NCC(=O)NC(C)C)c23)cc1`, for which the IC90 was > 10 µM. Further, the IC50 (HEPG2TOX_HILL_SLOPE 2.82, HEPG2TOX_R_SQUARED 0.984, PBLUC_HILL_SLOPE 1.1, PBLUC_R_SQUARED 0.732, read-out: LUCIFERASE INFECTION ASSAY - IC50) was 2.59 µM.
With `Clc1ccc(-c2nnc(Sc3nc(-c4cccs4)ns3)[nH]2)cc1`, the IC90 was > 8.73 µM. Under setting [1], the IC50 was > 8.73 µM.
`Cc1onc(-c2ccccc2)c1-c1csc(-c2ccc(Oc3ccc(C(F)(F)F)cn3)cc2)n1`: the 90% effect concentration (IC90) stood at 2.83 µM. Further, the IC50 (HEPG2TOX_HILL_SLOPE 12.3, HEPG2TOX_R_SQUARED 0.647, PBLUC_HILL_SLOPE 12.5, PBLUC_R_SQUARED 0.454, read-out: LUCIFERASE INFECTION ASSAY - IC50) is 2.37 µM.
Take `CCOc1cc(-c2nccc3cc(OC)c(OC)cc23)cc(OCC)c1OCC` [OCTAVERINE]: the IC90 stood at 8.02 µM. Besides, under “PBLUC_HILL_SLOPE 10.1, PBLUC_R_SQUARED 0.35, read-out: LUCIFERASE INFECTION ASSAY - IC50”, the half-maximal inhibitory concentration (IC50) was 6.45 µM.
For `CCCc1c(C(=O)ONC(=N)c2ccc(C(C)(C)C)cc2)cnn1-c1ccccc1`, the 90% effect concentration (IC90) was > 8.16 µM. Besides, under setting [1], the IC50 is > 8.16 µM.
For the compound `COC(=O)c1c(C)[nH]c(C(=O)N2CCCN(Cc3ccc(C(F)(F)F)cc3)CC2)c1C`, the concentration for an effect of 90% (IC90) came out at 3.51 µM. The IC50 (HEPG2TOX_HILL_SLOPE 0.883, HEPG2TOX_R_SQUARED 0.94, PBLUC_HILL_SLOPE 33.9, PBLUC_R_SQUARED 0.31, read-out: LUCIFERASE INFECTION ASSAY - IC50) was 3.29 µM.
Consider `CCn1c(NC(=O)c2cccnc2Oc2ccccc2)nc2ccccc21`, for which the IC90 is > 10 µM. Moreover, under setting [1], the IC50 is > 10 µM.
For the compound `O=C(Cc1coc2cc3c(cc12)CCC3)OCc1nccn1C(F)F`, the IC90 was > 10 µM. Further, the IC50 (PBLUC_HILL_SLOPE 0.616, PBLUC_R_SQUARED 0.411, read-out: LUCIFERASE INFECTION ASSAY - IC50) was > 10 µM.
Regarding `Cn1c2c(cc(-c3ccccc3)c1=O)CN(Cc1cnn(-c3ccc(F)cc3)c1)CC2`, the IC90 is > 7.96 µM. Also, the IC50 (HEPG2TOX_HILL_SLOPE 7.96, HEPG2TOX_R_SQUARED 0.425, PBLUC_HILL_SLOPE 14.6, PBLUC_R_SQUARED 0.0729, read-out: LUCIFERASE INFECTION ASSAY - IC50) is 7.11 µM.
For the compound `c1csc(-c2cnc3ccc(-c4ccc5c(c4)OCO5)nn23)c1`, the IC90 was > 10 µM. For the same compound, under “HEPG2TOX_HILL_SLOPE 2.2, HEPG2TOX_R_SQUARED 0.859, PBLUC_HILL_SLOPE 2.18, PBLUC_R_SQUARED 0.249, read-out: LUCIFERASE INFECTION ASSAY - IC50”, the half-inhibitory concentration (IC50) was found to be 4.56 µM.
For the compound `Cc1ccc(NC(=O)COc2ccc3c(c2C)OC(C)(C)CC3)cc1`, the IC90 was > 9.72 µM. Where the note is “PBLUC_HILL_SLOPE 1.51, PBLUC_R_SQUARED 0.601, read-out: LUCIFERASE INFECTION ASSAY - IC50”, the IC50 amounted to 3.8 µM.
Consider `COc1ccccc1C(=O)/C=C/c1ccc(N2CCCCC2)c([N+](=O)[O-])c1`, for which the IC90 was > 10 µM. Further, the half-maximal inhibitory concentration (IC50) (HEPG2TOX_HILL_SLOPE 11.8, HEPG2TOX_R_SQUARED 0.223, read-out: LUCIFERASE INFECTION ASSAY - IC50) was > 10 µM.
As to `CC(C)Oc1ccc(-c2nc3c4c5c(sc4ncn3n2)CN(C)CC5)cc1`, the IC90 was > 8.7 µM. Moreover, the half-maximal inhibitory concentration (IC50) (HEPG2TOX_HILL_SLOPE 0.881, HEPG2TOX_R_SQUARED 0.629, PBLUC_HILL_SLOPE 9.03, PBLUC_R_SQUARED 0.277, read-out: LUCIFERASE INFECTION ASSAY - IC50) amounted to 8.35 µM.
Turning to `CCOc1ccc(C(=O)CCC(=O)O)cc1`, the IC90 was > 14.8 µM. For the same compound, under setting [1], the IC50 was > 14.8 µM.
On to `N#C/C(=C\c1cn(Cc2ccccc2)nc1-c1cccnc1)c1nc2ccccc2[nH]1`, for which the IC90 turned out to be 8.82 µM. Besides, where the note is “PBLUC_HILL_SLOPE 2.49, PBLUC_R_SQUARED 0.607, read-out: LUCIFERASE INFECTION ASSAY - IC50”, the IC50 turned out to be 3.65 µM.
For `CN(C)CCCOc1ccc(-c2cn3c(-c4cccc(OC(F)(F)F)c4)cnc3cn2)cn1`, the concentration for an effect of 90% (IC90) is > 7.21 µM. Also, for the setting “PBLUC_HILL_SLOPE 15.4, PBLUC_R_SQUARED 0.0337, read-out: LUCIFERASE INFECTION ASSAY - IC50”, the 50% inhibitory concentration (IC50) stood at 6.95 µM.
Consider `Cc1ccccc1-n1c(C)cc(/C=C(\C#N)C(=O)NCC2CCCO2)c1C` (centres undefined), for which the IC90 is 6.25 µM. Also, the concentration for half-maximal inhibition (IC50) (PBLUC_HILL_SLOPE 1.57, PBLUC_R_SQUARED 0.725, read-out: LUCIFERASE INFECTION ASSAY - IC50) was determined as 1.55 µM.
On to `CCCN1CCc2nc(NCc3ccc(Cl)c(Cl)c3)ncc2C1`, for which the 90% effect concentration (IC90) was > 9.39 µM. Also, under setting [1], the half-maximal inhibitory concentration (IC50) was found to be 5.58 µM.
On the same counts, the results for `CCn1c(-c2ccccc2)c(C(=O)COc2ccccc2OC)c2ccccc21` are > 10 µM and > 10 µM.
Consider `NC1=NC(=S)N=C(N)C1=C(CS(=O)(=O)c1ccccc1)c1ccccc1`, for which the concentration for an effect of 90% (IC90) is > 8.58 µM. Moreover, the 50% inhibitory concentration (IC50) (PBLUC_HILL_SLOPE 1.77, PBLUC_R_SQUARED 0.148, read-out: LUCIFERASE INFECTION ASSAY - IC50) was > 8.58 µM.
Take `CCCCCCCCSC(=S)c1c(C)[nH]n(-c2ccccc2)c1=O`: the concentration for an effect of 90% (IC90) is > 9.1 µM. Also, the IC50 (PBLUC_HILL_SLOPE 1.5, PBLUC_R_SQUARED 0.801, read-out: LUCIFERASE INFECTION ASSAY - IC50) is > 9.1 µM.
Consider `COc1ccc(OCc2cc(C(=O)NCc3ccccc3)c(C)o2)cc1`, for which the IC90 was > 10 µM. Besides, for the setting “FFLUC_HILL_SLOPE 16.5, FFLUC_R_SQUARED 0.199, HEPG2TOX_HILL_SLOPE 9.38, HEPG2TOX_R_SQUARED 0.316, read-out: LUCIFERASE INFECTION ASSAY - IC50”, the IC50 is > 10 µM.
For `N#Cc1c(Cl)c2ccccc2[nH]c1=O`, the IC90 is > 16.1 µM. For the same compound, the half-maximal inhibitory concentration (IC50) under setting [1] was 14.9 µM.
On the same counts, the results for `CCOc1cc2c(cc1/C=C/C(=O)c1ccc3[nH]c(=O)[nH]c3c1)OC(C)C2` (centres undefined) are > 10 µM and > 10 µM.
As to `CC(Sc1nc(N)c2ccsc2n1)c1nc(-c2ccccc2)no1` (centres undefined), the IC90 is > 10 µM. Also, for the setting “PBLUC_HILL_SLOPE 3.96, PBLUC_R_SQUARED 0.141, read-out: LUCIFERASE INFECTION ASSAY - IC50”, the IC50 was > 10 µM.
With `O=C(CCSc1n[nH]c(=O)n1C1CC1)Nc1ccccc1`, the concentration for an effect of 90% (IC90) is > 10 µM. For the same compound, the concentration for half-maximal inhibition (IC50) under setting [1] was > 10 µM.
For the compound `Cc1nc(SCC(=O)N(C)Cc2cnn(Cc3ccccc3)c2)c2c(C)c(C)sc2n1`, the IC90 is > 10 µM. Also, the IC50 under setting [1] is > 10 µM.
